Measurements reported in publication PMC7395068, “The evolution of strategies to minimise the risk of human drug-induced liver injury (DILI) in drug discovery and development” (Archives of Toxicology, 2020).
Where two headings read alike, the source gives them in different places.

What was measured:
hLiMTs [1] = system: hLiMTs
PHH = conditions: cited from earlier work; for PHH ATP <100uM: In vitro Assay, ref Proctor 2017
HepaRG spheroids [2] = assay: Combined HCI (HCS) and cellular ATP 3D assay in HepaRG spheroids; conditions: for AC50 / minimal effective concentration: Homo sapiens
hLiMTs [3] = conditions: cited from earlier work; for hLiMTs ATP <100uM: In vitro Assay, ref Proctor 2017
[4] = cited from earlier work
hLiMTs [5] = assay: Combined HCI (HCS) and cellular ATP 3D assay in hLiMTs; conditions: for AC50 / minimal effective concentration: Homo sapiens
[6] = Plasma free fraction (fu) and unbound Cmax (Cmax,u); type: in vitro ADME, human
HepaRG spheroids [7] = system: HepaRG spheroids
[8] = cited from earlier work; remark: listed apart in the source
[9] = cited from earlier work; remark: listed apart in the source
[10] = system: HepG2 C3A spheroid, BSEP, Glu/Gal in HepG2 cells, bioactivation; conditions: cited from earlier work; for Bayesian Machine Learning: ref Williams 2019
[11] = system: isolated mouse liver mitochondria; conditions: In vitro Assay; ref Porceddu 2012; cited from earlier work
HepG2 cells = conditions: cited from earlier work
rBsep = conditions: In vitro Assay; ref Dawson 2012; cited from earlier work
[12] = plasma free fraction; cited from earlier work
[13] = system: THLE-Null and THLE-3A4 cells; conditions: In vitro Assay; ref Gustafsson 2014; cited from earlier work
PHH spheroids = conditions: cited from earlier work
[14] = HepaRG, read-out: ATP endpoint AC50
[15] = HepaRG, read-out: HCS endpoint AC50
[16] = Microtissue model structural based (HCI), combined HCS and ATP, MEC < 25 × Cmax.tot cut-off

CO[C@@]12[C@H](COC(N)=O)C3=C(C(=O)C(C)=C(N)C3=O)N1C[C@@H]1N[C@@H]12 [mitomycin C]
hLiMTs <10 uM All (hLiMTs [1]): +ve (key: +ve: <10 uM)
hLiMTs <100x Avg Cmaxu ATP (hLiMTs [1]; human): +ve (key: +ve: <100x Avg Cmaxu)
hLiMTs <100x Avg Cmaxu All (hLiMTs [1]; human): +ve (key: +ve: <100x Avg Cmaxu)
hLiMTs <100x Avg Cmaxu HCS (hLiMTs [1]; human): +ve (key: +ve: <100x Avg Cmaxu)
hLiMTs Cmax max All (hLiMTs [1]; human): +ve
hLiMTs Cmax min All (hLiMTs [1]; human): +ve
PHH/100uM, Proctor (2017) (PHH): +VE (key: +VE: IC50 threshold of 100 µM)
AC50 (HepaRG spheroids [2]; [14]): 0.4 µM
minimal effective concentration (HepaRG spheroids [2]; HepaRG, read-out: ATP endpoint MEC): 0.4 µM
AC50 (HepaRG spheroids [2]; [15]): 0.4 µM
minimal effective concentration (HepaRG spheroids [2]; HepaRG, read-out: HCS endpoint MEC): 0.4 µM
hLiMTs/100uM, Proctor (2017) (hLiMTs [3]): +VE (key: +VE: IC50 threshold of 100 µM)
Cmax ([4]; human, in vivo): 7.1 µM
AC50 (hLiMTs [5]; read-out: ATP endpoint AC50): 0.929 µM
minimal effective concentration (hLiMTs [5]; read-out: ATP endpoint MEC): 0.454 µM
AC50 (hLiMTs [5]; read-out: HCS endpoint AC50): 1.09 µM
minimal effective concentration (hLiMTs [5]; read-out: HCS endpoint MEC): 0.399 µM
Human plasma Cmax,u ([6]; human): 5.396 µM
HepaRG <10 uM All (HepaRG spheroids [7]): +ve (key: +ve: <10 uM)
HepaRG <100x Avg Cmaxu ATP (HepaRG spheroids [7]; human): +ve (key: +ve: <100x Avg Cmaxu)
HepaRG <100x Avg Cmaxu All (HepaRG spheroids [7]; human): +ve (key: +ve: <100x Avg Cmaxu)
HepaRG <100x Avg Cmaxu HCS (HepaRG spheroids [7]; human): +ve (key: +ve: <100x Avg Cmaxu)
HepaRG Cmax max All (HepaRG spheroids [7]; human): +ve
HepaRG Cmax min All (HepaRG spheroids [7]; human): +ve

CC(C)[N+](C)(CCOC(=O)C1c2ccccc2Oc2ccccc21)C(C)C [propantheline]
hLiMTs <10 uM All (hLiMTs [1]): -ve
hLiMTs Cmax max All (hLiMTs [1]; human): -ve
hLiMTs Cmax min All (hLiMTs [1]; human): -ve
PHH ATP <100uM (PHH): -VE
In vivo DILI ([8]; ref Proctor 2017): -VE
In vivo DILI ([8]; ref Williams 2019): -VE
DILI severity category ([9]; in vivo): No
DILI +VE (5-8), DILI -VE (-4) ([9]; ref Chen 2016): -VE
DILI severity category ([9]; ref Chen 2016): vNo-DILI-Concern
hLiMTs ATP <100uM (hLiMTs [3]): -VE
Bayesian Machine Learning [10]: -VE
HepaRG <10 uM All (HepaRG spheroids [7]): -ve
HepaRG Cmax max All (HepaRG spheroids [7]; human): -ve
HepaRG Cmax min All (HepaRG spheroids [7]; human): -ve

Clc1ccccc1CN1CCc2sccc2C1 [ticlopidine]
PHH/100uM, Proctor (2017) (PHH; 2D PHH, ATP, IC50 threshold 100 µM, ref Proctor et al. 2017): -VE
PHH ATP <100uM (PHH): -VE
in vitro data EC2<=1x Cmax [11]: +VE
in vitro data EC20<=2uM [11]: +VE
Assigned DILI category ([8]; Chen et al. 2016 or literature alignment, ref Chen et al. 2016): 3
In vivo DILI ([8]; […]): +VE
In vivo DILI ([8]; ref Dawson 2012): +VE
In vivo DILI ([8]; ref Garside 2014): +VE
In vivo DILI ([8]; ref Gustafsson 2014): +VE
In vivo DILI ([8]; ref Porceddu 2012): +VE
In vivo DILI ([8]; ref Proctor 2017): +VE
In vivo DILI ([8]; ref Tolosa 2012): +VE
In vivo DILI ([8]; ref Vorrink 2018): +VE
In vivo DILI ([8]; ref Williams 2019): +VE
In vivo DILI ([8]; ref Xu 2008): +VE
Structural based (HCI) (HepG2 cells; In vitro Assay, ref Tolosa 2012): +VE
DILI in vitro assay prediction, Tolosa (2012) (HepG2 cells; Structural based (HCI), HepG2, ref Tolosa et al. 2012): +VE
DILI severity category (Chen et al. [2016]) ([9]; LTKB DILIrank category, ref Chen et al. 2016): Most
DILI severity category ([9]; human DILI severity, ref Chen et al.): Most
DILI +VE (5-8), DILI -VE (-4) ([9]; ref Chen 2016): +VE
DILI severity category ([9]; ref Chen 2016): vMost-DILI-Concern
Inhibition of rBsep cutoff<1& cmax u>.2 (rBsep): +VE
Inhibition of rBsep cutoff<3 (rBsep): +VE
HepaRG <25x Avg Cmax ATP (HepaRG spheroids [2]; HepaRG, ATP endpoint, cut-off <25x Avg Cmax): +ve
HepaRG <100x Avg Cmaxu ATP (HepaRG spheroids [2]; HepaRG, ATP endpoint, cut-off <100x Avg Cmaxu): -ve
HepaRG <25x Avg Cmax HCS (HepaRG spheroids [2]; HepaRG, HCS endpoints, cut-off <25x Avg Cmax): +ve
HepaRG <100x Avg Cmaxu HCS (HepaRG spheroids [2]; HepaRG, HCS endpoints, cut-off <100x Avg Cmaxu): -ve
HepaRG <25x Avg Cmax All (HepaRG spheroids [2]; HepaRG, all endpoints (ATP and HCS), cut-off <25x Avg Cmax): +ve
HepaRG Cmax max All (HepaRG spheroids [2]; HepaRG, all endpoints, Cmax max used): +ve
HepaRG Cmax min All (HepaRG spheroids [2]; HepaRG, all endpoints, Cmax min used): +ve
HepaRG <10 uM All (HepaRG spheroids [2]; HepaRG, all endpoints, cut-off <10 uM): -ve
HepaRG <100x Avg Cmaxu All (HepaRG spheroids [2]; HepaRG, all endpoints, cut-off <100x Avg Cmaxu): -ve
AC50 (HepaRG spheroids [2]; [14]): 56 µM
AC50 (HepaRG spheroids [2]; [15]): 60.8 µM
DILI prediction HepaRG spheroids (HCS-MEC) (HepaRG spheroids [2]; [16]): +VE (MEC < 25 × Cmax.tot cut-off)
hLiMTs ATP <100uM (hLiMTs [3]): +VE (IC50 threshold of 100 µM)
hLiMTs/100uM, Proctor (2017) (hLiMTs [3]; hLiMTs, ATP, IC50 threshold 100 µM, ref Proctor et al. 2017): -VE
Cmax ([4]; read-out: Human plasma Cmax, total plasma Cmax.tot, median of 9 literature references): 8.07 µM
AC50 (hLiMTs [5]; read-out: ATP endpoint AC50): 10.7 µM
AC50 (hLiMTs [5]; read-out: HCS endpoint AC50): 115 µM
DILI prediction hLiMTs (HCS-MEC) (hLiMTs [5]; [16]): +VE (MEC < 25 × Cmax.tot cut-off)
hLiMTs <25x Avg Cmax ATP (hLiMTs [5]; hLiMTs, ATP endpoint, cut-off <25x Avg Cmax): +ve
hLiMTs <100x Avg Cmaxu ATP (hLiMTs [5]; hLiMTs, ATP endpoint, cut-off <100x Avg Cmaxu): +ve (<100x Avg Cmaxu)
hLiMTs <25x Avg Cmax HCS (hLiMTs [5]; hLiMTs, HCS endpoints, cut-off <25x Avg Cmax): +ve
hLiMTs <100x Avg Cmaxu HCS (hLiMTs [5]; hLiMTs, HCS endpoints, cut-off <100x Avg Cmaxu): -ve
hLiMTs <25x Avg Cmax All (hLiMTs [5]; hLiMTs, all endpoints (ATP and HCS), cut-off <25x Avg Cmax): +ve
hLiMTs Cmax max All (hLiMTs [5]; hLiMTs, all endpoints, Cmax max used): +ve
hLiMTs Cmax min All (hLiMTs [5]; hLiMTs, all endpoints, Cmax min used): +ve
hLiMTs <10 uM All (hLiMTs [5]; hLiMTs, all endpoints, cut-off <10 uM): +ve (<10 uM)
hLiMTs <100x Avg Cmaxu All (hLiMTs [5]; hLiMTs, all endpoints, cut-off <100x Avg Cmaxu): +ve (<100x Avg Cmaxu)
fu [12]: 0.020
Human plasma Cmax,u ([6]; unbound plasma Cmax): 0.161 µM
Bayesian Machine Learning DILI prediction, Williams (2019) ([10]; Bayesian modeling, ref Williams et al. 2019): +VE
Bayesian Machine Learning ([10]; In vitro Assay): +VE
THLE-Null [13]: +VE
hLiMTs ATP <20 x Cmax (PHH spheroids; In vitro Assay, ref Vorrink 2018): +VE (IC20 < 20 × Cmax.tot cut-off)
DILI in vitro assay prediction, Vorrink (2018) (PHH spheroids; PHH spheroids, ATP, 14 days, IC20 < 20 × Cmax.tot, ref Vorrink et al. 2018): +VE (IC20 < 20 × Cmax.tot cut-off)
